Measured values: paper PMC7617889, “Molecular basis for pH sensing in the KDEL trafficking receptor” (Structure (London, England : 1993), 2024)
Where no end group is shown, it is not given here.

Columns and labels:
[1] = system: HeLa S3 cells (endogenous KDEL receptor); assay: ER secretion assay (western blot of cells and media); format: cell-based, human; settings: for secretion of endogenous luminal ER chaperones (BiP, PDI, ERP44) caused by the exogenous signal variant: western blot, n = 3, compared with signals having leucine at −1, result in words; for ER retention of the mScarlet reporter (secretion to media): 24 hr expression, western blot of cell extracts and medium, n = 3, result in words
Text: To further explore if disturbing the water will disrupt the binding, the terminal leucine at the −1 position in the HDEL ligand was alchemically changed to phenylalanine or alanine (Figures 3E and 3F). Phenylalanine also stabilized the two waters in the binding pocket, resulting in a high unbinding free energy. Due to its small size, alanine, however, was unable to stabilize the water, resulting in lower binding free energy. To validate these calculations, we tested the impact of signal variants at the −1 position on both retrieval of the endogenous KDELR from the Golgi to the ER and ER retention of a reporter protein carrying the signal variant in a cellular assay. To measure the role of the −1 position on retrieval of the endogenous KDELR to the ER, cells were transfected with mScarlet-reporters carrying −1 alanine (H/KDEA) or phenylalanine (H/KDEF) variants of either the HDEL or KDEL retrieval signals (Figure 4A). […] Finally, the effect of −1 variant signals on KDELR retrieval of endogenous ER chaperones was also tested. […] This effect was reduced for HDEF or KDEF signals and lost entirely for HDEA or KDEA signals (Figures 4B and 4D).
Figure 4 The terminal amino acid modulates recognition of the ERS by the KDEL receptor (A) Endogenous KDEL receptor redistribution was measured in COS-7 cells in the absence (-ligand) or presence of H/KDEL/F/A (mScarlet-xDEx^sec). TGN46 was used as a Golgi marker. The scale bar is 10 μm. The mean differences for H/KDEL/F/A comparisons against the shared no-ligand control are shown as Cummings estimation plots. The individual data points for the fraction of KDEL receptor fluorescence in the Golgi are plotted on the upper axes. On the lower axes, mean differences are plotted as bootstrap sampling distributions. Each mean difference is depicted as a dot. Each 95% confidence interval is indicated by the ends of the vertical error bars. (B) Cells and media collected from HeLa S3 cells expressing the xDEx variants (mScarlet-K/HDEx^sec) indicated in the figure were western blotted for resident ER chaperons and KDEL receptor.*unspecific bands (C) K/HDEx secretion to media bar graph showing mean ± SEM (n = 3). (D) Bar graph of endogenous ER chaperones secreted after challenged with different retrieval signals as measured by western blot showing mean ± SEM (n = 3).
ER chaperone secretion assays were performed as described in Gerondopoulos et al.[11] Briefly HeLa S3 cells were transfected with mScarlet-ligand (+xDEL ligand) or pcDNA3.1 (− ligand), and allowed to express the respective proteins for 24 hr. The media were TCA precipitated and both cell and media were resuspended and boiled in SDS-PAGE sample buffer. All samples were analysed by Western blotting and signals on films were measured by densitometry in FIJI.[33] Data were plotted as bar graphs in GraphPad Prism.

chicken KDELR = settings: cited from earlier work
[2] = system: human KDELR1-GFP D9N in COS-7 cells; assay: Retrieval assay (KDEL receptor redistribution Golgi to ER); format: cell-based; settings: KDELR-GFP D9N vs WT, mScarlet ligand
Text: Figure 6 Effect of the water on proton transfer between Asp9 and His12 (A) In the bound state, a proton could be transferred from the histidine (His12/H12) to the aspartate (Asp9/D9) through the crystallographic water. A similar proton transfer can also be made in the apo state. (B) In the apo and bound state, the free energy barrier for the proton transfer (the center of excess charge) from the histidine to aspartate is similar. A larger energy barrier is observed for the proton transfer from aspartate back to the histidine in the bound state. (C) WT, D9A and D9N-mutant KDEL receptors redistribution in COS-7 cells in the absence (-ligand) or presence of K/R/HDEL (mScarlet-xDEL^sec) ligand. TGN46 was used as a Golgi marker. […] (D) The fraction of wild-type and H12A, D9A, and D9N-mutant KDEL receptors localized to the Golgi was measured before (no ligand) and after challenge with different retrieval signals (K/R/HDEL) and is shown as Cummings estimation plots. […]
Retrieval assays were performed as described in Gerondopoulos et al.[11] […] The signal for the KDEL receptor (integrated pixel intensity) was measured in individual cells using FIJI[33] for the Golgi region defined by the TGN46 Golgi marker and for the entire cell in the presence (+) and absence (-) of ligand. The fraction of KDEL receptor in the Golgi apparatus was calculated by dividing the Golgi signal by the total cell signal. […]

TAEKDEL peptide = settings: cited from earlier work
TAEHDEL peptide = settings: cited from earlier work
[3] = molecular target: T1, Gallus gallus (Gg) KDELR2 (Gallus gallus, UniProt Q5ZKX9); assay: Peptide binding assay, competition of 3H-labelled peptide (filter binding, scintillation counting); settings: competition of 3H-labelled peptide at 20 nM, 20 mM MES pH 5.4, 40 mM sodium chloride, 0.01% DDM 0.0005% CHS, 20°C, 10 min, mean, n = 3, read-out: affinity (mean IC50, Figure S3)
T1 construct: GFP-His fusion (C); made in house; host or cells: Saccharomyces cerevisiae strain BY5460
T1 sequence (Q5ZKX9 1-212): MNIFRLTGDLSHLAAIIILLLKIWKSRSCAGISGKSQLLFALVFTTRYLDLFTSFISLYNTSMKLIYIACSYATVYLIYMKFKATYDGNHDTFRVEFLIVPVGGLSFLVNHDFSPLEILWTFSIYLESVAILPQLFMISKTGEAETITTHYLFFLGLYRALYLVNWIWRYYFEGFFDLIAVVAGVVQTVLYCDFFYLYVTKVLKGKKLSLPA
Experimental: Binding assays were performed as detailed in Bräuer, P. et al.[19] WT or mutant protein (5 μL) in 20 mM MES pH 5.4, 40 mM Sodium Chloride, 0.01% DDM 0.0005% CHS was incubated with 5 μL of 3H-TAEHDEL (Cambridge Research Biochemicals, UK) at 20 nM at 20°C for 10 min. Using a vacuum manifold, the reaction was then filtered through a 0.22 μm mixed cellulose ester filters (Millipore, USA). Filters were washed with 2 x 0.5 mL cold buffer. The amount of peptide remaining bound was measured using scintillation counting in Ultima Gold (Perkin Elmer). Experiments were performed at least three times, independently, to generate an overall mean and standard deviation (s.d).
Figure S3. Affinity of different cargo signals, related to Figure 5. Mean IC50 values calculated for the TAEHDEF and TAEHDEL peptides competing […] peptide. Error bars are standard deviation of the mean (n = 3).
(1 picture or pasted object on this page, not shown here)

[4] = molecular target: T2, human KDELR1-GFP D9N (human) (UniProt P24390)
T2 sequence: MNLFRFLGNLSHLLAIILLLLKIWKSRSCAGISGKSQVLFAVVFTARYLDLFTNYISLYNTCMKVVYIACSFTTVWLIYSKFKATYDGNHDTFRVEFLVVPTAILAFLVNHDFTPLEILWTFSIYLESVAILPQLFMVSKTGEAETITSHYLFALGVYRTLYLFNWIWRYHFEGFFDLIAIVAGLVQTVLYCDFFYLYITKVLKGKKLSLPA

Row | Substance | secretion of endogenous luminal ER chaperones (BiP, PDI, ERP44) caused by the exogenous signal variant [1] | Kd (chicken KDELR) [µM] | further results
1 | HDEA [HDEL ligand with terminal leucine changed to alanine (simulation)] | lost entirely |  | 
2 | HDEF [HDEL ligand with terminal leucine changed to phenylalanine (simulation)] | reduced |  | ER retention of the mScarlet reporter (secretion to media) [1]: retained more efficiently than the alanine variants but less efficiently than when leucine is present
3 | HDEL |  | 0.24 | retrieval of cargo by the Asp9Asn receptor variant relative to WT [2]: ~ 80 % WT levels
4 | KDEA [KDEL ligand with alanine at the −1 position (simulation)] | lost entirely |  | 
5 | KDEF^sec: hGHss-mScarlet-H. sapiens BiP639-654 L654F secreted reporter (GPPPTGEEDTAEKDEF; not fully specified (N-terminus)) | reduced |  | ER retention of the mScarlet reporter (secretion to media) [1]: retained more efficiently than the alanine variants but less efficiently than when leucine is present
6 | KDEL receptor (from UniProt Q5ZKX9) |  |  | Kd (TAEKDEL peptide): 1.94 µM; Kd (TAEHDEL peptide): 0.24 µM
7 | Lys-Asp-Glu-Leu [KDEL] |  | 1.94 | 
8 | RDEL [RDEL variant of the retrieval signal peptide] |  | 2.71 | 
9 | TAEHDEF [TAEHDEF] |  |  | IC50 [3]: 23 µM
10 | TAEHDEL [TAEHDEL, reference compound] |  |  | IC50 [3]: 18 µM
11 | TAEKDEL [ER-retrieval signal peptide with canonical KDEL, Cambridge peptides] |  | 1.94 | 
12 | hGHss-mScarlet-H. sapiens BiP639-654 K651H (HDEL^SEC) (from UniProt P11021 639-654) |  |  | ligand-induced redistribution of KDELR1-GFP from the Golgi in COS-7 cells (cell retrieval assay), HDEL ligand [4]: 80 % WT levels
